Earlier results as cited in US12176087B2, “Pharmacogenomic decision support for modulators of the NMDA, glycine, and AMPA receptors” (THE REGENT OF THE UNIVERSITY OF MICHIGAN, priority 2019, dated 2024).

Columns and labels:
TRD patients = details: phase III trial
[1] = tested on: treatment-resistant depression (TRD) patients

Compound | deaths reported (TRD patients) | TRD patients who experienced severe dissociative effects (TRD patients; fraction of TRD patients) | TRD patients in the treatment arm with severe psychotomimetic effects including delirium, delusion and suicidal ideation, as well as suicide attempts (TRD patients; treatment arm, additional) [%] | TRD patients who do not remit after treatment ([1]; fraction of all TRD patients) | TRD patients with rapid antidepressant response and concomitant elevated levels of glutamate in cortex ([1]; measured by MADRS total score)
CN[C@]1(c2ccccc2Cl)CCCCC1=O [Esketamine] | 2 | a quarter | 6.9 |  | 
CNC1(c2ccccc2Cl)CCCCC1=O (racemic) [Ketamine, RS-2-chlorophenyl-2-methylamino-cyclohexanone] |  |  |  | about half | approximately 50%
